Test results taken from the supplement of paper PMC10307832.

Columns and labels:
Experiment in all cases: relative viability (nuclei count vs DMSO), 5 days (fraction); higher = more cells survive
Idelalisib + Alpelisib = compound: CC[C@H](Nc1ncnc2[nH]cnc12)c1nc2cccc(F)c2c(=O)n1-c1ccccc1 [Idelalisib] + Cc1nc(NC(=O)N2CCC[C@H]2C(N)=O)sc1-c1ccnc(C(C)(C)C(F)(F)F)c1 [Alpelisib] (partner 2 µM)
How it was run: (§1)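 Values are medians from duplicate plates. Each reflects relative viability, defined as the nuclei count of treated wells over that of vehicle wells. Lung cancer cell lines in 1536-well plates were pin-tool dosed one day after seeding with one drug alone or with a fixed anchor-drug dose plus five library-drug doses (not always all listed) in √10 steps, then fixed, stained and imaged at 4× after 5 days.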

Pemetrexed + Luminespib = compound: Nc1nc2[nH]cc(CCc3ccc(C(=O)N[C@@H](CCC(=O)O)C(=O)O)cc3)c2c(=O)[nH]1 [Pemetrexed] + CCNC(=O)c1noc(-c2cc(C(C)C)c(O)cc2O)c1-c1ccc(CN2CCOCC2)cc1 [Luminespib] (partner 0.01 µM)
How it was run: as §1

Pemetrexed + Trametinib = compound: Nc1nc2[nH]cc(CCc3ccc(C(=O)N[C@@H](CCC(=O)O)C(=O)O)cc3)c2c(=O)[nH]1 [Pemetrexed] + CC(=O)Nc1cccc(-n2c(=O)n(C3CC3)c(=O)c3c(Nc4ccc(I)cc4F)n(C)c(=O)c(C)c32)c1 [Trametinib] (partner 0.02 µM)
How it was run: as §1

Pemetrexed + Bortezomib = compound: Nc1nc2[nH]cc(CCc3ccc(C(=O)N[C@@H](CCC(=O)O)C(=O)O)cc3)c2c(=O)[nH]1 [Pemetrexed] + CC(C)C[C@H](NC(=O)[C@H](Cc1ccccc1)NC(=O)c1cnccn1)B(O)O [Bortezomib] (partner 0.002 µM)
How it was run: as §1

| Cell Line | relative viability (Idelalisib + Alpelisib; first compound 0.04 µM) | relative viability (Idelalisib + Alpelisib; first compound 0.1265 µM) | relative viability (Idelalisib + Alpelisib; first compound 0.4 µM) | relative viability (Idelalisib + Alpelisib; first compound 1.265 µM) | relative viability (Idelalisib + Alpelisib; first compound 4 µM) | relative viability (Pemetrexed + Luminespib; first compound 0.002 µM) | relative viability (Pemetrexed + Luminespib; first compound 0.006325 µM) | relative viability (Pemetrexed + Luminespib; first compound 0.02 µM) | relative viability (Pemetrexed + Luminespib; first compound 0.06325 µM) | relative viability (Pemetrexed + Luminespib; first compound 0.2 µM) | relative viability (Pemetrexed + Trametinib; first compound 0.002 µM) | relative viability (Pemetrexed + Trametinib; first compound 0.006325 µM) | relative viability (Pemetrexed + Trametinib; first compound 0.02 µM) | relative viability (Pemetrexed + Trametinib; first compound 0.06325 µM) | relative viability (Pemetrexed + Trametinib; first compound 0.2 µM) | relative viability (Pemetrexed + Bortezomib; first compound 0.002 µM) | relative viability (Pemetrexed + Bortezomib; first compound 0.006325 µM) | relative viability (Pemetrexed + Bortezomib; first compound 0.02 µM) | relative viability (Pemetrexed + Bortezomib; first compound 0.06325 µM) | relative viability (Pemetrexed + Bortezomib; first compound 0.2 µM) |
| --- | --- | --- | --- | --- | --- | --- | --- | --- | --- | --- | --- | --- | --- | --- | --- | --- | --- | --- | --- | --- |
| A-427 | 1.11 | 1.05 | 0.945 | 1.15 | 1.06 | 0.912 | 0.923 | 0.968 | 0.793 | 0.956 | 0.785 | 0.794 | 0.794 | 0.696 | 0.733 | 0.929 | 1.06 | 1.04 | 0.96 | 1.06 |
| NCI-H460 | 0.566 | 0.521 | 0.426 | 0.324 | 0.291 | 0.0265 | 0.0449 | 0.0346 | 0.0259 | 0.0265 | – | 0.0664 | 0.241 | 0.0967 | 0.0451 | 1.06 | 1 | 1.16 | 0.177 | 0.0656 |
| NCI-H23 | 0.737 | 0.635 | 0.357 | 0.727 | 0.515 | 0.216 | 0.202 | 0.22 | 0.201 | 0.211 | 0.426 | 0.294 | 0.408 | 0.375 | 0.381 | 0.865 | 0.924 | 1.02 | 1.06 | 0.725 |
| LOU-NH91 | 0.762 | 0.705 | 0.634 | 0.59 | 0.641 | 0.399 | 0.318 | 0.374 | 0.298 | 0.315 | 0.754 | 0.759 | 0.782 | 0.682 | 0.638 | 0.515 | 0.558 | 0.52 | 0.467 | 0.472 |
| NCI-H2009 | 1.18 | 1.12 | 1.14 | 1.17 | 1.01 | 0.94 | 0.995 | 1.04 | 0.991 | 1.03 | 0.303 | 0.256 | 0.316 | 0.249 | 0.27 | 0.911 | 0.954 | 1.15 | 0.974 | 1 |
| NCI-H2126 | 0.739 | 0.739 | 0.611 | 0.675 | 0.6 | 0.827 | 0.96 | 0.89 | 0.883 | 0.831 | 0.55 | 0.522 | 0.591 | 0.567 | 0.533 | 1.04 | 1.14 | 1.19 | 1.06 | 1.06 |
| NCI-H1437 | 0.947 | 1.07 | 0.892 | 0.84 | 0.748 | – | 1.06 | 0.997 | 0.856 | 0.487 | 0.362 | 0.473 | 0.424 | 0.382 | 0.285 | 0.31 | 0.478 | 0.514 | 0.313 | 0.26 |
| SK-LU-1 | 1.43 | 1.12 | 0.886 | 0.876 | 0.968 | 0.195 | 0.2 | 0.187 | 0.2 | 0.21 | 0.412 | 0.478 | 0.61 | 0.402 | 0.424 | 0.949 | 1.21 | 1.3 | 1.08 | 1.31 |
| NCI-H838 | 0.902 | 1.02 | 0.914 | 0.957 | 0.818 | 0.234 | 0.246 | 0.309 | 0.197 | 0.156 | 0.555 | 0.53 | 0.664 | 0.393 | 0.169 | 0.895 | 0.708 | 1.07 | 0.63 | 0.208 |
| NCI-H1755 | 0.611 | 0.9 | 0.827 | 0.784 | 0.735 | 0.421 | 0.594 | 0.631 | 0.415 | 0.437 | 0.737 | 0.809 | 0.775 | 0.731 | 0.732 | 0.819 | 0.952 | 1.04 | 1.01 | 0.867 |
| NCI-H2228 | 1.07 | 0.739 | 0.774 | 0.672 | 0.631 | 0.18 | – | 0.153 | 0.115 | 0.124 | 0.509 | 0.611 | 0.597 | 0.318 | 0.285 | 0.934 | 0.918 | 1.07 | 0.754 | 0.339 |
| NCI-H1915 | 1.14 | 1.11 | 1.03 | 1.11 | 1.04 | 0.818 | 0.857 | 0.84 | 0.836 | 0.781 | 0.287 | 0.294 | 0.248 | 0.306 | 0.283 | 0.937 | 1.02 | 1.04 | 0.965 | 0.943 |
| NCI-H2347 | 0.964 | 1 | 0.989 | 1.07 | 0.881 | 0.0507 | 0.281 | 0.551 | 0.55 | 0.381 | 0.282 | 0.376 | 0.246 | 0.287 | 0.28 | 0.678 | 1.26 | 1.07 | 0.903 | 0.599 |
| HARA | 1.03 | 0.843 | 0.855 | 0.754 | 0.751 | 0.554 | 0.751 | 1.19 | 0.855 | 0.165 | 0.592 | 0.395 | 0.797 | 0.41 | 0.17 | 0.567 | 1.12 | 1.17 | 0.846 | 0.453 |
| NCI-H2085 | 1.01 | 0.955 | 0.811 | 0.874 | 0.514 | 0.386 | 0.304 | 0.449 | 0.414 | 0.427 | 0.605 | 0.47 | 0.553 | 0.583 | 0.576 | 1.01 | 1.19 | 1.04 | 1.09 | 1.05 |
| NCI-H650 | 1.27 | 1.01 | 0.961 | 1.46 | 0.962 | 0.751 | 0.733 | 0.732 | 0.705 | 0.842 | 0.894 | 0.887 | – | 1.03 | 1.02 | 0.67 | 0.828 | 0.748 | 0.853 | 0.866 |
